We go through 16 molecules from ChEMBL document CHEMBL1201862, “PubChem BioAssay data set” (2004).

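These data come from cells grown in 96-well plates and exposed to compound for 48 hours at five concentrations. GI50 marks 50% less growth.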 The source made the active and inactive calls. Cut-off read from the data, not from the text of the source: active = GI50 up to about 1.1 µM and inactive = higher.

Among the test systems are SK-OV-3; HOP-62; CAKI-1; TK-10; OVCAR-5; OVCAR-8; OVCAR-4; LOX IMVI; KM12; U-251; UACC-62; HL-60; RXF 393; SR.
Holding throughout (assay): NCI-60 cell line screen, 48 h

`O=c1c2cc(Br)ccc2[nH]c(=S)n1-c1ccccc1`: the GI50 with SK-OV-3, in the experiment with HOP-62, in the experiment with CAKI-1, in the experiment on TK-10, in the experiment on OVCAR-5 and in the experiment with OVCAR-8 was > 100 µM (inactive) throughout. Also, the GI50 with OVCAR-4, in the experiment on LOX IMVI, in the experiment with KM12, with U-251 and in the experiment on UACC-62 was > 100 µM (inactive) each time.

With `[O-][S+]1c2ccccc2N=C(c2ccc3ccccc3c2)CC1C1=CC=CCC1` (stereo not drawn), the GI50 with SK-OV-3 is 30.5 µM (inactive); with HOP-62 it was 19.1 µM (inactive); in the experiment with CAKI-1, 16.1 µM (inactive); in the experiment with TK-10, 22.2 µM (inactive); with OVCAR-5, 18.9 µM (inactive); in the experiment with OVCAR-8, 20.3 µM (inactive). Also, the GI50 is > 10 µM (inactive) in the experiment with OVCAR-4; 15.4 µM (inactive) with LOX IMVI; 17.6 µM (inactive) in the experiment on HL-60; 14.9 µM (inactive) in the experiment with KM12; 16.8 µM (inactive) with RXF 393; 15.7 µM (inactive) with UACC-62.

On to `CN(CC(=O)O)S(=O)(=O)c1ccc2ccccc2c1`, for which the GI50 in the experiment with SK-OV-3, in the experiment with CAKI-1, with TK-10, with OVCAR-5, with OVCAR-8 and in the experiment with OVCAR-4 was > 100 µM (inactive) each time. In addition, the GI50 in the experiment with LOX IMVI, in the experiment on HL-60, with KM12, in the experiment with RXF 393, in the experiment with U-251 and in the experiment with UACC-62 was > 100 µM (inactive) each time.

As for `CC(C)(C)N/N=C(\C(=O)Nc1cccc(Cl)c1)C1C(=O)Nc2ccccc2[S+]1[O-]` (stereo not drawn), the GI50 in the experiment on SK-OV-3, in the experiment with HOP-62, with SR, in the experiment with CAKI-1, in the experiment with TK-10 and with OVCAR-8 was > 100 µM (inactive) throughout. Further, the GI50 with OVCAR-4, in the experiment with LOX IMVI, in the experiment on HL-60, with KM12, in the experiment with RXF 393 and in the experiment with UACC-62 was > 100 µM (inactive) each time.

Take `Cc1ccc(NC(=O)C2C(=O)N(c3ccc(C)cc3)C(=O)/C2=N\NC(N)=S)cc1` (stereo not drawn): the GI50 in the experiment with SK-OV-3, in the experiment with HOP-62, with CAKI-1, with TK-10, with OVCAR-5 and in the experiment with OVCAR-8 was > 100 µM (inactive) in each case. Further, the GI50 in the experiment with OVCAR-4, in the experiment with LOX IMVI, in the experiment with KM12, with RXF 393, in the experiment with U-251 and in the experiment with UACC-62 was > 100 µM (inactive) in each case.

Take `COc1ccc(-c2c(N)[n+]([O-])c3cc(C)c(C)cc3[n+]2[O-])cc1OC`: the GI50 with SK-OV-3 was > 100 µM (inactive); in the experiment with HOP-62 it was > 100 µM (inactive); in the experiment on CAKI-1, 37.8 µM (inactive); in the experiment on TK-10, > 100 µM (inactive); in the experiment on OVCAR-5 it was > 100 µM (inactive); in the experiment with OVCAR-8 it was > 100 µM (inactive). In addition, the GI50 is > 100 µM (inactive) in the experiment on OVCAR-4; > 100 µM (inactive) with LOX IMVI; 46.3 µM (inactive) with HL-60; > 100 µM (inactive) in the experiment with KM12; 67.3 µM (inactive) in the experiment on U-251; 41.4 µM (inactive) in the experiment with UACC-62.

Consider `COc1ccc2ccc3c(c2c1)CN1CCc2cc(OC)c(OC)cc2C1C3` (stereo not drawn), for which the GI50 in the experiment with SK-OV-3, with HOP-62, in the experiment with SR, in the experiment with CAKI-1, in the experiment with TK-10 and with OVCAR-5 was > 100 µM (inactive) in each case. The GI50 with OVCAR-8, in the experiment on OVCAR-4, with LOX IMVI, in the experiment on HL-60, in the experiment with KM12 and with U-251 was > 100 µM (inactive) in each case. In addition, in the experiment on UACC-62, the GI50 was > 100 µM (inactive).

Regarding `CN1C(=O)CC2(C)c3cc(O)cc(Br)c3N(C)C12` (stereo not drawn), the GI50 in the experiment with SK-OV-3 is > 100 µM (inactive); with HOP-62, > 100 µM (inactive); in the experiment on TK-10 it was > 100 µM (inactive); in the experiment on OVCAR-5, > 100 µM (inactive); in the experiment on OVCAR-8 it was > 100 µM (inactive); in the experiment on OVCAR-4, > 10 µM (inactive). Besides, the GI50 was > 100 µM (inactive) in the experiment with LOX IMVI; > 100 µM (inactive) in the experiment on KM12; > 100 µM (inactive) with RXF 393; > 100 µM (inactive) in the experiment on U-251; 81.5 µM (inactive) in the experiment with UACC-62.

In the case of `CC(C)(C)c1cc(C(O)(C(F)(F)F)C(F)(F)F)c2c(c1)C(C(F)(F)F)(C(F)(F)F)OC(C)(C(C)(C)C)N2` (stereo not drawn), the GI50 was 2.25 µM (inactive) with SK-OV-3; 2.82 µM (inactive) in the experiment on SR; 3.04 µM (inactive) in the experiment on CAKI-1; 3.27 µM (inactive) in the experiment with TK-10; 7.13 µM (inactive) in the experiment with OVCAR-5; 4.9 µM (inactive) with OVCAR-8. For the same molecule, the GI50 is 4.62 µM (inactive) in the experiment with OVCAR-4; 3.94 µM (inactive) with KM12; 4.43 µM (inactive) in the experiment on RXF 393; 2.69 µM (inactive) with U-251; 3.58 µM (inactive) in the experiment with UACC-62.

For `C/C(=C\C(C[C@](C)(O)C(O)CCC#C[Si](C)(C)C)S(=O)(=O)c1ccccc1)CC/C=C/CO[Si](C)(C)C(C)(C)C` (stereo partly drawn), the GI50 was 22.6 µM (inactive) in the experiment with SK-OV-3; 21.4 µM (inactive) in the experiment on HOP-62; 18.6 µM (inactive) in the experiment on CAKI-1; 22 µM (inactive) in the experiment on TK-10; 13.7 µM (inactive) with OVCAR-5; 17.2 µM (inactive) in the experiment with OVCAR-8. Moreover, the GI50 with OVCAR-4 was 13.8 µM (inactive); in the experiment with LOX IMVI it was 13.2 µM (inactive); with HL-60 it was 14.9 µM (inactive); with KM12, 16.8 µM (inactive); in the experiment on RXF 393 it was 14.7 µM (inactive); in the experiment on U-251 it was 13.4 µM (inactive). Moreover, in the experiment with UACC-62, the GI50 is 17.4 µM (inactive).

As to `C#C[C@]1(O)CCC2C3CCc4cc(Oc5nc(F)nc(-n6c(C)nc7cc8ccccc8cc76)n5)ccc4C3CCC21C` (stereo partly drawn), the GI50 with SK-OV-3 is 62.1 µM (inactive); in the experiment with HOP-62, 35.7 µM (inactive); in the experiment with TK-10 it was 65.9 µM (inactive); in the experiment with OVCAR-8, 39.1 µM (inactive); with LOX IMVI, 40.1 µM (inactive); with HL-60, 31.1 µM (inactive). In addition, the GI50 in the experiment with KM12 is 32.7 µM (inactive); in the experiment with RXF 393, 48.9 µM (inactive); in the experiment with U-251, 36.2 µM (inactive); in the experiment with UACC-62 it was 29.2 µM (inactive).

Turning to `CC12CO[C@@](C)(CC(S(=O)(=O)c3ccccc3)C1)O2` (stereo partly drawn), the GI50 with SK-OV-3, in the experiment on HOP-62, with SR, in the experiment with OVCAR-5, in the experiment on OVCAR-8 and in the experiment on OVCAR-4 was > 100 µM (inactive) throughout. For the same molecule, the GI50 in the experiment with HL-60, with KM12, with RXF 393, in the experiment with U-251 and with UACC-62 was > 100 µM (inactive) throughout.

For the molecule `CNS(=O)(=O)NN(C)S(=O)(=O)c1ccccc1`, the GI50 with HOP-62, with SR, in the experiment on CAKI-1, in the experiment on TK-10, with OVCAR-8 and in the experiment with OVCAR-4 was > 100 µM (inactive) in each case. For the same molecule, the GI50 in the experiment with LOX IMVI is > 100 µM (inactive); with HL-60, > 100 µM (inactive); in the experiment on KM12 it was > 100 µM (inactive); with RXF 393 it was 0.472 µM (active); in the experiment with U-251 it was > 100 µM (inactive); in the experiment on UACC-62, > 100 µM (inactive).

As for `CC1=C(C(=O)Nc2ccccc2)C(c2ccccc2)C(C(=O)Nc2ccccc2)=C(C)N1`, the GI50 was > 100 µM (inactive) in the experiment on SK-OV-3; > 100 µM (inactive) in the experiment on HOP-62; 4.74 µM (inactive) in the experiment with CAKI-1; 91 µM (inactive) in the experiment on TK-10; > 100 µM (inactive) in the experiment on OVCAR-5; 75 µM (inactive) in the experiment with OVCAR-8. In addition, the GI50 was 60.7 µM (inactive) in the experiment with OVCAR-4; 16.3 µM (inactive) in the experiment with HL-60; 17.3 µM (inactive) with KM12; 26.5 µM (inactive) with RXF 393; 48.1 µM (inactive) in the experiment on U-251; 15.4 µM (inactive) with UACC-62.

On to `O=c1/c(=C/c2ccccc2[N+](=O)[O-])sc2nnc(-c3cccnc3)n12`, for which the GI50 in the experiment on HOP-62 is > 100 µM (inactive); in the experiment with SR, 76.7 µM (inactive); in the experiment on CAKI-1, 1.43 µM (inactive); in the experiment on TK-10, > 100 µM (inactive); in the experiment with OVCAR-5 it was > 100 µM (inactive); with OVCAR-8, > 100 µM (inactive). The GI50 in the experiment with OVCAR-4, with LOX IMVI, in the experiment with HL-60, with KM12, in the experiment with RXF 393 and in the experiment on UACC-62 was > 100 µM (inactive) in each case.

As to `O=C1CCCCCCC2=C1C(Sc1ccccc1)CC2` (stereo not drawn), the GI50 was 83 µM (inactive) in the experiment with SK-OV-3; > 100 µM (inactive) in the experiment on HOP-62; 18.2 µM (inactive) with SR; 36.6 µM (inactive) in the experiment on TK-10; 23 µM (inactive) in the experiment with OVCAR-8; 63.2 µM (inactive) in the experiment on OVCAR-4. Moreover, the GI50 was 15.8 µM (inactive) with LOX IMVI; 12.8 µM (inactive) in the experiment on HL-60; 23.2 µM (inactive) with KM12; 18.9 µM (inactive) in the experiment with RXF 393; 37.1 µM (inactive) with U-251; 36.1 µM (inactive) in the experiment with UACC-62.
